From patent US8975398B2, “NAMPT inhibitors” (AbbVie Inc., priority 2012, dated 2015)

System: PC3 cells
Test: NAMPT Cell Proliferation Assay (Cell Titer Glo; also performed in the presence of 0.3 mM nicotinamide mononucleotide)
Format: cell-based
Conditions: Homo sapiens, PC-3, 120 h, 5 days incubation, cell viability by Cell Titer Glo
Summary of the method: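 PC3 cells were plated at 500 cells/well in RPMI with 10% heat-inactivated FBS, left to attach overnight, then given compounds in 10-fold dilutions from 10 μM to 1×10^−5 μM. After 5 days at 37° C and 5% CO2, viability was read by luminescence and IC50s came from sigmoidal fits of percent inhibition.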

SMILES	IC50 [nM]
Cc1ccc(N2CC(C(=O)Nc3ccc(O[C@@H]4CCN(C(=O)c5ccc(F)cc5F)C4)cc3)C2)nn1 [Example 917, N-(4-{[(3R)-1-(2,4-difluorobenzoyl)pyrrolidin-3-yl]oxy}phenyl)-1-(6-methylpyridazin-3-yl)azetidine-3-carboxamide]	101
Cc1ccc(N2CC(C(=O)Nc3ccc(O[C@@H]4CCN(C(=O)c5cscn5)C4)cc3)C2)nn1 [Example 918, 1-(6-methylpyridazin-3-yl)-N-(4-{[(3R)-1-(1,3-thiazol-4-ylcarbonyl)pyrrolidin-3-yl]oxy}phenyl)azetidine-3-carboxamide]	717
O=C(Nc1ccc(C2CCN(C(=O)CCC(F)(F)F)CC2)nc1)C1CN(c2cccnn2)C1 [Example 919, 1-(pyridazin-3-yl)-N-{6-[1-(4,4,4-trifluorobutanoyl)piperidin-4-yl]pyridin-3-yl}azetidine-3-carboxamide]	51.9
Cc1ccnnc1N1CC[C@H](C(=O)Nc2ccc(C3CCN(C(=O)C(C)(C)C)CC3)cc2)C1 [Example 922, (3S)—N-{4-[1-(2,2-dimethylpropanoyl)piperidin-4-yl]phenyl}-1-(4-methylpyridazin-3-yl)pyrrolidine-3-carboxamide]	3.38
O=C(Nc1ccc(-c2cc(C(F)(F)F)nn2-c2ccccc2)cc1)C1CN(c2cccnn2)C1 [Example 923, N-{4-[1-phenyl-3-(trifluoromethyl)-1H-pyrazol-5-yl]phenyl}-1-(pyridazin-3-yl)azetidine-3-carboxamide]	69.4
CC(C)(C)Cn1cc(-c2ccc(NC(=O)C3CN(c4cccnn4)C3)cn2)cn1 [Example 924, N-{6-[1-(2,2-dimethylpropyl)-1H-pyrazol-4-yl]pyridin-3-yl}-1-(pyridazin-3-yl)azetidine-3-carboxamide]	1.17
CC1(Cn2cc(-c3ccc(NC(=O)C4CN(c5cccnn5)C4)cn3)cn2)CCNCC1 [Example 926, N-(6-{1-[(4-methylpiperidin-4-yl)methyl]-1H-pyrazol-4-yl}pyridin-3-yl)-1-(pyridazin-3-yl)azetidine-3-carboxamide]	602
O=C(Nc1ccc(CC2CCN(C(=O)c3cncs3)CC2)cc1)C1CN(c2cccnn2)C1 [Example 927, 1-(pyridazin-3-yl)-N-(4-{[1-(1,3-thiazol-5-ylcarbonyl)piperidin-4-yl]methyl}phenyl)azetidine-3-carboxamide]	3.9
O=C(Nc1ccc(CC2CCN(C(=O)C3CCCC3)CC2)cc1)C1CN(c2cccnn2)C1 [Example 928, N-(4-{[1-(cyclopentylcarbonyl)piperidin-4-yl]methyl}phenyl)-1-(pyridazin-3-yl)azetidine-3-carboxamide]	2.56
O=C(Nc1ccc(CC2CCN(C(=O)c3cn[nH]c3)CC2)cc1)C1CN(c2cccnn2)C1 [Example 929, N-(4-{[1-(1H-pyrazol-4-ylcarbonyl)piperidin-4-yl]methyl}phenyl)-1-(pyridazin-3-yl)azetidine-3-carboxamide]	27.1
CCC(C)(C)C(=O)N1CCC(Cc2ccc(NC(=O)C3CN(c4cccnn4)C3)cc2)CC1 [Example 930, N-(4-{[1-(2,2-dimethylbutanoyl)piperidin-4-yl]methyl}phenyl)-1-(pyridazin-3-yl)azetidine-3-carboxamide]	2.7
O=C(Nc1ccc(CC2CCN(C(=O)CC3C[C@@H]4CC[C@H]3C4)CC2)cc1)C1CN(c2cccnn2)C1 (stereo partly drawn) [Example 933, N-[4-({1-[(1S,4R)-bicyclo[2.2.1]hept-2-ylacetyl]piperidin-4-yl}methyl)phenyl]-1-(pyridazin-3-yl)azetidine-3-carboxamide]	2.39
CCCC(C)C(=O)N1CCC(Cc2ccc(NC(=O)C3CN(c4cccnn4)C3)cc2)CC1 (stereo not shown) [Example 934, N-(4-{[1-(2-methylpentanoyl)piperidin-4-yl]methyl}phenyl)-1-(pyridazin-3-yl)azetidine-3-carboxamide]	2.45
CC(C)CCC(=O)N1CCC(Cc2ccc(NC(=O)C3CN(c4cccnn4)C3)cc2)CC1 [Example 935, N-(4-{[1-(4-methylpentanoyl)piperidin-4-yl]methyl}phenyl)-1-(pyridazin-3-yl)azetidine-3-carboxamide]	2
O=C(Nc1ccc(CC2CCN(C(=O)c3ccn[nH]3)CC2)cc1)C1CN(c2cccnn2)C1 [Example 938, N-(4-{[1-(1H-pyrazol-5-ylcarbonyl)piperidin-4-yl]methyl}phenyl)-1-(pyridazin-3-yl)azetidine-3-carboxamide]	8.75
Cc1ccc(C(=O)N2CCC(Cc3ccc(NC(=O)C4CN(c5cccnn5)C4)cc3)CC2)cn1 [Example 939, N-[4-({1-[(6-methylpyridin-3-yl)carbonyl]piperidin-4-yl}methyl)phenyl]-1-(pyridazin-3-yl)azetidine-3-carboxamide]	2.96

Next, values leading:

IC50 [nM]	SMILES
139	Cc1ccc(N2CC(C(=O)Nc3ccc(O[C@@H]4CCN(C(=O)CC(C)C)C4)cc3)C2)nn1 [Example 915, N-(4-{[(3R)-1-(3-methylbutanoyl)pyrrolidin-3-yl]oxy}phenyl)-1-(6-methylpyridazin-3-yl)azetidine-3-carboxamide]
646	Cc1ccc(N2CC(C(=O)Nc3ccc(O[C@@H]4CCN(C(=O)C(C)C)C4)cc3)C2)nn1 [Example 916, N-(4-{[(3R)-1-(2-methylpropanoyl)pyrrolidin-3-yl]oxy}phenyl)-1-(6-methylpyridazin-3-yl)azetidine-3-carboxamide]
5.43	CC(C)(C)CC(=O)N1CCC(c2ccc(NC(=O)C3CN(c4cccnn4)C3)cn2)CC1 [Example 920, N-{6-[1-(3,3-dimethylbutanoyl)piperidin-4-yl]pyridin-3-yl}-1-(pyridazin-3-yl)azetidine-3-carboxamide]
2.9	Cc1ccnnc1N1CC[C@H](C(=O)Nc2ccc(C3CCN(C(=O)c4ccccc4)CC3)cc2)C1 [Example 921, (3S)—N-[4-(1-benzoylpiperidin-4-yl)phenyl]-1-(4-methylpyridazin-3-yl)pyrrolidine-3-carboxamide]
10.1	CC(C)(C)OC(=O)N1CCC(n2cc(NC(=O)C3CN(c4cccnn4)C3)cn2)CC1 [Example 925, tert-butyl 4-[4-({[1-(pyridazin-3-yl)azetidin-3-yl]carbonyl}amino)-1H-pyrazol-1-yl]piperidine-1-carboxylate]
3.17	CC1CC1C(=O)N1CCC(Cc2ccc(NC(=O)C3CN(c4cccnn4)C3)cc2)CC1 (stereo not shown) [Example 931, N-[4-({1-[(2-methylcyclopropyl)carbonyl]piperidin-4-yl}methyl)phenyl]-1-(pyridazin-3-yl)azetidine-3-carboxamide]
5.82	CSCC(=O)N1CCC(Cc2ccc(NC(=O)C3CN(c4cccnn4)C3)cc2)CC1 [Example 932, N-[4-({1-[(methylsulfanyl)acetyl]piperidin-4-yl}methyl)phenyl]-1-(pyridazin-3-yl)azetidine-3-carboxamide]
2.18	CSCCC(=O)N1CCC(Cc2ccc(NC(=O)C3CN(c4cccnn4)C3)cc2)CC1 [Example 936, N-[4-({1-[3-(methylsulfanyl)propanoyl]piperidin-4-yl}methyl)phenyl]-1-(pyridazin-3-yl)azetidine-3-carboxamide]
2.62	O=C(Nc1ccc(CC2CCN(C(=O)c3cscn3)CC2)cc1)C1CN(c2cccnn2)C1 [Example 937, 1-(pyridazin-3-yl)-N-(4-{[1-(1,3-thiazol-4-ylcarbonyl)piperidin-4-yl]methyl}phenyl)azetidine-3-carboxamide]
